Reference: US20220401591A1, “SYSTEM AND METHOD FOR QUANTITATIVE MAPPING OF MITOCHONDRIAL COMPLEX 1” (Lantheus Medical Imaging, Inc., priority 2012, published 2022)

Columns and labels:
[1] = cited from earlier work
[2] = tested on: mitochondrial complex I (MC-I); test: 100 minute dynamic ^18F-Flurpiridaz PET study of binding in the heart, 2-compartment reversible model fit; format: in vivo, cynomolgus monkey; conditions: myocardium ROI, 100 min data, 1.25 mCi
Description: Measurement of myocardial blood flow and binding potential with ^18F-Flurpiridaz can be approached with standard methods that are well understood and available in our laboratory. We use a four parameter (K1, k2, k3, k4), two tissue compartment model (FIGS. 1A-1B) to describe Flurpiridaz kinetics. In this model the tracer can be in one of two states, either free, as the injected molecule, or bound to a receptor. In the case of ^18F-Flurpiridaz, previous studies have shown that it binds reversibly to mitochondrial complex I and this is supported by the data presented herein (see Example 3). Referring to FIGS. 1A-1B, the product of plasma concentration (Cp) and transport rate K1 is the force driving the tracer from capillary plasma to the free space (i.e., both free and nonspecifically bound). Conceptually, CF represents free flurpiridaz and CB represents Flurpiridaz binding to the MC-I complex. Corrections (not shown) are included for spillover of activity.
Symbolically, K1 is the plasma-to-tissue transport rate, FE, the product of flow and the unidirectional capillary extraction fraction, E. k2 is a rate constant summarizing the egress from tissue to plasma. The rate constants k3 (kon*B′max) and k4 (koff) provide a summary description of binding and release of tracer. This model, with nonlinear least squares, was used to fit 100 minutes of data obtained in a study of binding in the heart of a cynomolgus monkey (see Example 3). It is anticipated that a similar approach will be adequate for validation studies in pigs. Graphical methods can also be studied and applied for determination of BP, as they may be more appropriate for quantitative parametric images and future translation to human studies. For example, consider: Logan J, Fowler J S, Volkow N D, et al. Graphical analysis of reversible radioligand binding from time-activity measurements applied to [N-11C-methyl]-(-)-cocaine PET studies in human subjects. J Cereb Blood Flow Metab. Sep 1990; 10(5):740-747 and Zhou Y, Ye W, Brasic J R, Crabb A H, Hilton J, Wong D F. A consistent and efficient graphical analysis method to improve the quantification of reversible tracer binding in radioligand receptor dynamic PET studies. Neuroimage. Feb 1 2009; 44(3):661-670. Software programs for both approaches have been developed. Realistic Monte Carlo simulation and sensitivity analysis can be used to determine the precision obtained with a given dose of ^18F-Flurpiridaz and the experimental duration of the study. The structure of ^18F-Flurpiridaz is detailed in FIG. 1C.
Based on preliminary data from a primate study using ^18F-Flurpiridaz, the parameter precision for estimating the MBF and BPP was evaluated. […]

MC-I = test: ^18F-Flurpiridaz cardiac dynamic PET in infarcted pig, two-tissue compartment model; format: in vivo, domestic swine
Description: In some aspects the model is further developed. The modeling approach is based upon the two-tissue compartment model that describes the uptake and retention of a radiotracer that diffusively exchanges between the blood and tissue, and binds reversibly to a specific target site (FIG. 1A-1B). In this framework the concentration of radiotracer is considered in three distinct states: in the plasma (CP) or one of two tissue states, freely suspended in the tissue fluids (CF) or specifically bound to the target site (CB). Four parameters (K1, k2 , k3, k4) detail the physiological mechanisms underlying uptake and binding. K1 and k2 pertain to the rates of tracer influx (proportional to blood flow) from the vasculature and efflux back out of the tissue, respectively. The ratio K1/k2 is the partition coefficient VND. which reflects non-specific uptake based on properties of the tissue that are not expected to vary regionally. The rate at which tracer binds to the target site is related by k3. The bimolecular nature of associative binding makes k3 a compound parameter, the product of kon (an intrinsic binding rate characteristic to the ligand and target site) and Bmax (the density of the binding sites). For reversibly binding interactions such as between ^18F-Flurpiridaz and MC-I, the return of specifically bound tracer to the free state is portrayed by k4. Here k4 is synonymous with the intrinsic binding dissociation constant koff, which is not expected to differ between regions. In our cardiac application, two additional parameters (fLV, fRV) account for signal contamination from blood pools in the adjacent left and right ventricles. Combinations of individual rate constants yield macroparameters that are robust and informative with regard to radiotracer binding at the target site. These macroparameters include total volume of distribution (VT=[K1/k2][1+k3/k4], the equilibrium ratio of tracer concentration in tissue vs. plasma) and several variants of binding potential (BP, proportional to the target density). […]

[3] = 17 segments fitted independently

CC(C)(C)n1ncc(OCc2ccc(COCCF)cc2)c(Cl)c1=O [^18F-Flurpiridaz]
unidirectional extraction fraction ([1]; at all physiological flow values): ~1
brain blood barrier passage ([1]; in vivo): crosses the brain blood barrier
k2 (egress from tissue to plasma) [2]: 0.075 (SD=4.7%)
k3/k4 [2]: 1.65 (SD=4.0%)
k4 (koff, release) [2]: 0.016 (SD=10.4%)
K1 (plasma-to-tissue transport rate) ([2]; SD from asymptotic covariance matrix): 0.51 (SD=1.5%)
reduction of K1 in damaged compared to healthy tissue (MC-I; [3]): about 50%
reduction of VT in damaged compared to healthy tissue (MC-I; [3]): about 75%
binding reduction (BP) in damaged tissues (MC-I; grand fit with common VND across regions): up to 90%
